Reference: ChEMBL document CHEMBL5550205, “Discovery of a NCOA4 Degrader for Labile Iron-Dependent Ferroptosis Inhibition” (J Med Chem, 2024)
Active and inactive are the calls of the source. The rule behind the calls is not given here.

Legend:
[1] = molecular target: von Hippel-Lindau disease tumor suppressor/Nuclear receptor coactivator 4 (Homo sapiens, UniProt P40337+Q13772); assay: PROTAC activity at NCOA4/VHL in human HeLa cells assessed as induction of NCOA4 degradation at 50 nM measured for 24 hrs by Western blot analysis; type: cell-based
[2] = system: AML12; assay: Protection against CCl4-induced ferroptosis in mouse AML12 cells assessed as cell viability; type: functional, cell-based

von Hippel-Lindau disease tumor suppressor/Nuclear receptor coactivator 4, sequence (P40337 whole entry, looked up): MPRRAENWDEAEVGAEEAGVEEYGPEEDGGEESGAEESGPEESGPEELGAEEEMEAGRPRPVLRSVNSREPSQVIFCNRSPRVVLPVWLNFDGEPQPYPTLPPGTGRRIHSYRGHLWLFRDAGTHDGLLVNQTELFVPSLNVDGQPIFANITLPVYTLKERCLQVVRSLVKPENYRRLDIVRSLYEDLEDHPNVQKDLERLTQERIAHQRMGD
von Hippel-Lindau disease tumor suppressor/Nuclear receptor coactivator 4, sequence (Q13772 whole entry, looked up): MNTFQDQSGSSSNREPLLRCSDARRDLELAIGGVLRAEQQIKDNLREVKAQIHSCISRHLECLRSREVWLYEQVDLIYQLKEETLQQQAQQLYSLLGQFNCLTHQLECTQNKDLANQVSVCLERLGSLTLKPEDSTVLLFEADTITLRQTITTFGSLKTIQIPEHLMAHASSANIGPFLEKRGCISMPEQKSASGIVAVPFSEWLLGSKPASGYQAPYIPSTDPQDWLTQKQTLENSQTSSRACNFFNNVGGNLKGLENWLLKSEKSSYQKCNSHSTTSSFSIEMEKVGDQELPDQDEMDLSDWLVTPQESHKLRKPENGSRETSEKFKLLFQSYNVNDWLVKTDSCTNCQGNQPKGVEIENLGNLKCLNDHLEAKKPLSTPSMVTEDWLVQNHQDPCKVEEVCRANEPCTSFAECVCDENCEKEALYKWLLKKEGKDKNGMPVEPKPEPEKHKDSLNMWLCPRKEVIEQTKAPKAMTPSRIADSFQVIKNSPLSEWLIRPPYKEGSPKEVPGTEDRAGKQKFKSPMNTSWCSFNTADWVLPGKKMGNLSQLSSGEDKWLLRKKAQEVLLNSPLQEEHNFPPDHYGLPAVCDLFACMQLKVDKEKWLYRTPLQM

Activity [1] | SMILES | EC50 [2] [µM]
Active | CN1CCN(c2ccc3nc(-c4cccc(N5CCc6cc(F)ccc6C5)c4)[nH]c3c2)CC1 | 
 | CC(=O)N(O)CCCCCNC(=O)CCC(=O)N(O)CCCCCNC(=O)CCC(=O)N(O)CCCCCN [DEFEROXAMINE] | 8.83
